From ChEMBL document CHEMBL2157948, “Design, synthesis, and structure-activity-relationship of phenyl imidazoles as potent Smoothened antagonists” (Bioorg Med Chem Lett, 2012)
≈ marks a conversion by molar mass, not a printed value.

What was measured:
Protein smoothened [1] = target: T1, Protein smoothened (Mus musculus, UniProt P56726); test: Antagonist activity at Smo in mouse TM3 cells expressing Hh12 assessed as inhibition of 25 nM Ag1.5-induced Gli expression incubated for 30 mins prior to Ag1.5-induction measured after 48 hrs by luciferase reporter gene assay; assay type: functional, cell-based
Protein smoothened [2] = target: T1, Protein smoothened; test: Antagonist activity at Smo in mouse TM3 cells expressing Hh12 assessed as inhibition of 1 nM Ag1.5-induced Gli expression incubated for 30 mins prior to Ag1.5-induction measured after 48 hrs by luciferase reporter gene assay; assay type: functional, cell-based
Mus musculus [3] = test: Dose normalised AUC in po dosed mouse; assay type: ADME, organism-based; details: in vivo
Mus musculus [4] = test: Clearance in po dosed mouse; assay type: ADME, organism-based; details: in vivo
Protein smoothened [5] = target: Protein smoothened (Homo sapiens, UniProt Q99835); test: Antagonist activity at human Smo expressed in CHO cells assessed as inhibition of BODIPY-cyclopamine binding after 4 hrs by fluorescence assay; assay type: cell-based
[6] = Plasma protein binding in rat; assay type: ADME, cell-free; details: read-out: PPB (converted)
[7] = Aqueous solubility of the compound at pH 7; assay type: physicochemical
[8] = Oral bioavailability in rat at 3 to 30 mg/kg; assay type: ADME, organism-based; details: in vivo
[9] = Clearance in mouse; assay type: ADME, organism-based; details: in vivo
[10] = Volume of distribution at steady state in rat at 3 to 30 mg/kg; assay type: ADME, organism-based; set-up: dose 3-30 mg/kg; details: in vivo, read-out: Vdss
[11] = Clearance in rat at 3 to 30 mg/kg; assay type: ADME, organism-based; set-up: dose 3-30 mg/kg; details: in vivo
[12] = Permeability of the compound by PAMPA assay; assay type: ADME
[13] = Mean residence time in rat at 3 to 30 mg/kg; assay type: ADME, organism-based; set-up: dose 3-30 mg/kg; details: in vivo
[14] = Mean residence time in mouse; assay type: ADME, organism-based; details: in vivo
[15] = Ratio of drug uptake in brain to plasma in mouse; assay type: ADME, organism-based; details: read-out: BPR
[16] = Volume of distribution at steady state in mouse; assay type: ADME, organism-based; details: in vivo, read-out: Vdss
Protein smoothened [17] = target: T1, Protein smoothened; test: Antagonist activity at mouse Smo expressed in CHO cells assessed as inhibition of BODIPY-cyclopamine binding after 4 hrs by fluorescence assay; assay type: cell-based
[18] = Oral bioavailability in mouse; assay type: ADME, organism-based; details: in vivo
[19] = Aqueous solubility of the compound at pH 1; assay type: physicochemical
[20] = Plasma protein binding in human; assay type: ADME, cell-free; details: read-out: PPB (converted)

T1 sequence (P56726 whole entry): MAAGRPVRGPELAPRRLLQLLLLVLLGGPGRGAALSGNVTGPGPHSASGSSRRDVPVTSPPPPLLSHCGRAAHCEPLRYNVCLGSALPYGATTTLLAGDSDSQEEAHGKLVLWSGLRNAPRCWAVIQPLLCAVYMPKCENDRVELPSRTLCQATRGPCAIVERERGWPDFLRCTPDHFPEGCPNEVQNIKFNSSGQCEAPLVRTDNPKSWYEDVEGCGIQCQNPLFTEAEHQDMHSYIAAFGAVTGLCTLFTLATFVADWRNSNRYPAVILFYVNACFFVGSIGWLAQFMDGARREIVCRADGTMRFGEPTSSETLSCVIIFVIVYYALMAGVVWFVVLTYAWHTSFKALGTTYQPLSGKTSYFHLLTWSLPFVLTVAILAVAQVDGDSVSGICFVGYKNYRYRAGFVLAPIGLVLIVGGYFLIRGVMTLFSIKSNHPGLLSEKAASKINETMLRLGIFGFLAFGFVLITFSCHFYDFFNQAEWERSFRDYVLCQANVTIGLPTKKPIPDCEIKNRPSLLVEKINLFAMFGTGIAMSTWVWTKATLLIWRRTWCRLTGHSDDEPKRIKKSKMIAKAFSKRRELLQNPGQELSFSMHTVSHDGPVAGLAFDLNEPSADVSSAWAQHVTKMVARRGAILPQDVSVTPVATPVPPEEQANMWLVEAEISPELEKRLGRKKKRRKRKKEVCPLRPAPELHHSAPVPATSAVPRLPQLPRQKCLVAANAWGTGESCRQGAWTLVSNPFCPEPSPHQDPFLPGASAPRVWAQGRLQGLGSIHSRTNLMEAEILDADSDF
Protein smoothened (Homo sapiens, UniProt Q99835), sequence (Q99835 whole entry): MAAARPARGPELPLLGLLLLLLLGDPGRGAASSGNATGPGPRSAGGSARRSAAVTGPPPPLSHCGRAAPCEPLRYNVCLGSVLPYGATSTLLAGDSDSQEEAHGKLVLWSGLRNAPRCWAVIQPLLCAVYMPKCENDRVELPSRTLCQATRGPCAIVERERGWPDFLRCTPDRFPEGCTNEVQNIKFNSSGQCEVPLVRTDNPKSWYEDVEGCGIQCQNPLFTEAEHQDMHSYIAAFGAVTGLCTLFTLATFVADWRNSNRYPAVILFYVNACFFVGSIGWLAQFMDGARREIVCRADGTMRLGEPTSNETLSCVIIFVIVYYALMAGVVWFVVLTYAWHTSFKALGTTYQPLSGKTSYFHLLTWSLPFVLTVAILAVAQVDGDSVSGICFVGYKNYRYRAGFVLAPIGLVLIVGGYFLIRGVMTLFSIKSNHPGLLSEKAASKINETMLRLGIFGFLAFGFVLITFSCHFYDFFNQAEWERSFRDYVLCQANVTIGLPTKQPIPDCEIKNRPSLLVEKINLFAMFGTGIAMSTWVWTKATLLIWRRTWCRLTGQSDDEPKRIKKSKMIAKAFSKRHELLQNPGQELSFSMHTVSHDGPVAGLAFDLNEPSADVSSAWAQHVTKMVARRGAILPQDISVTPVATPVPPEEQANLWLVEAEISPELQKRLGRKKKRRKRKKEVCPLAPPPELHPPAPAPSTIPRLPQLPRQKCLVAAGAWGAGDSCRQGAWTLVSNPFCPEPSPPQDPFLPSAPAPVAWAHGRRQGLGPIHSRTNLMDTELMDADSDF

Row | SMILES | IC50 (Protein smoothened [1]) [nM] | IC50 (Protein smoothened [2]) [nM] | AUC/dose (Mus musculus [3]) [nM·h] | clearance (Mus musculus [4]) [mL/min/kg] | further results
1 | Clc1ccc(Nc2nccc3ccccc23)cc1-c1ncc(-c2ccccc2)[nH]1 | 157 | 19 |  |  | 
2 | C[C@@H]1CN(c2ccc3c(Nc4ccc(Cl)c(-c5ncc(-c6ccccc6)[nH]5)c4)nccc3n2)CCO1 | 11 | 0.6 | 881 | 32 | IC50 (Protein smoothened [5]): 4 nM; fraction unbound [6]: 0.015; solubility [7]: < 1 µg/mL; bioavailability [8]: 53%; clearance [9]: 32 mL/min/kg; Vd [10]: 1 L/kg; clearance [11]: 5 mL/min/kg; permeability [12]: permeable; MRT [13]: 3.33 h; MRT [14]: 33.6 min; Kp [15]: 0.4; Vd [16]: 1.07 L/kg; IC50 (Protein smoothened [17]): 1.6 nM; bioavailability [18]: 82%; solubility [19]: 93 µg/mL (≈ 187 µM); fraction unbound [20]: 0.039
3 | O=S1(=O)CCN(c2ccc3c(Nc4ccc(Cl)c(-c5nc(-c6ccccc6)c[nH]5)c4)nccc3c2)CC1 | 31 | 2 |  |  | 
4 | Clc1ccc(Nc2nccc3cc(N4CCOCC4)ccc23)cc1-c1ncc(-c2ccccc2)[nH]1 | 2.6 | 0.1 | 101 |  | 
5 | C[C@@H]1CN(c2ccc3c(Nc4ccc(Cl)c(-c5ncc(-c6ccccc6)[nH]5)c4)nccc3c2)CCO1 | 1.6 | 0.1 | 533 | 30.9 | 
6 | Cc1ccc(NC(=O)c2ccc(N3CCOCC3)cc2)cc1-c1nc(-c2ccccc2)c[nH]1 |  | 0.2 |  |  | 

Second part, led by results:

Row | IC50 (Protein smoothened [1]) [nM] | IC50 (Protein smoothened [2]) [nM] | AUC/dose (Mus musculus [3]) [nM·h] | clearance (Mus musculus [4]) [mL/min/kg] | SMILES | further results
7 | 6 | 0.2 | 268 | 33.1 | C[C@@H]1CN(c2ccc3c(Nc4ccc(Cl)c(-c5nc(-c6ccccc6)c[nH]5)c4)nccc3n2)C[C@H](C)O1 | 
8 | 5 | 0.3 | 492 |  | C[C@@H]1CN(c2ccc3c(Nc4ccc(Cl)c(-c5ncc(-c6ccccc6)[nH]5)c4)cccc3n2)C[C@H](C)O1 | 
9 | 8 | 0.4 | 0 |  | C[C@@H]1CN(c2ccc3c(Nc4ccc(Cl)c(-c5nc(-c6ccccc6)c[nH]5)c4)ccnc3c2)C[C@H](C)O1 | 
10 | 35 | 3 |  |  | C[C@@H]1CN(c2cnc3c(Nc4ccc(Cl)c(-c5nc(-c6ccccc6)c[nH]5)c4)cccc3n2)C[C@H](C)O1 | 
11 |  |  | 499 | 24.7 | C[C@@H]1CN(c2ccc3c(Nc4ccc(Cl)c(-c5ncc(-c6ccccc6)[nH]5)c4)nccc3c2)C[C@H](C)O1 | 
